Laboratory results reported in US20240151711A1, “ADJUVANT FOR VACCINE DEVELOPMENT” (priority 2021, published 2024).

How the values were obtained:
BMDCs = assay: Stimulation of cytokine production by mRNA vaccine in BMDCs (ELISA); type: cell-based, mouse; settings: 24 hours; FIG. 20
Experimental: GM-CSF/IL4-induced BMDCs were seeded into 24-well plates at a seeding density of 5×10^5 cells/well, and treated with PBS control, the TLR7 agonist imiquimod, mRNA-free vehicle control, mRNA core control, or mRNA vaccine (MVP) for 24 hours. Cell growth media were collected and IFN-b and TNF-α levels were measured with ELISA assay (FIG. 20). To determine pathways that play important roles on stimulation of cytokine production, BMDCs were induced from bone marrow cells collected from wild-type mice, Sting knockout mice, and Tlr7 knockout mice. Cells were treated with PBS control, mRNA-free vehicle control, mRNA core control, or mRNA vaccine (MVP) for 24 hours, and cell growth media were collected 24 hours later for measurement of cytokine levels.

[1] = test system: BMDCs derived from wild-type mice or Sting knockout mice; assay: Identification of key adjuvant component in mRNA vaccine (EDOPC replaced with DOTAP); type: cell-based, mouse; settings: Vehicle or MVP prepared with EDOPC or DOTAP; FIG. 22
Text: In order to determine the role of the charged lipid (i.e., EDOPC), positively charged 1,2-dioleoyl-3-trimethylammonium-propane (DOTAP) was used to replace EDOPC to prepare vehicle and mRNA vaccine. The resulting vehicle (Vehicle with DOTAP) and mRNA vaccine (MVP with DOTAP) were applied to compare with the parental vehicle (Vehicle with EDOPC) and mRNA vaccine (MVP with EDOPC) on stimulation of cytokine expression after BMDC treatment.

tumor = settings: intra-tumoral administration; cited from earlier work

Structure (SMILES): CC(C)Cn1cnc2c(N)nc3ccccc3c21 [imiquimod]
- IFN-β level in growth media (BMDCs): same as potent in stimulating IFN-β expression
- TNF-α level in growth media (BMDCs): same as potent in stimulating TNF-α expression

Structure (SMILES): CCCCCCCC/C=C\CCCCCCCC(=O)OC[C@@H](COP(=O)(OCC)OCC[N+](C)(C)C)OC(=O)CCCCCCC/C=C\CCCCCCCC (stereo partly shown) [EDOPC, 1,2-dioleoyl-sn-glycero-3-ethylphosphocholine]
- IFN-β level in growth media [1]: essential for STING-dependent stimulation

Structure (SMILES): Cc1ccc2c(=O)c3cccc(CC(=O)O)c3oc2c1C [DMXAA, 5,6-dimethylxanthenone-4-acetic acid]
- antitumor immunity (tumor): strong antitumor immunity
